Data set [1] can be described thus: Cytotoxicity in HepG2 cells (alamarBlue). To be noted: human. Background: The colour change of resazurin is a common sign of viable cells or microbes.
Data set [2] concerns intramacrophage L. infantum-iRFP amastigotes. Briefly: Viability of L. infantum-iRFP intramacrophage amastigotes in infected murine splenocytes (infrared fluorescence, 384-well). To be noted: for EC50: Leishmania infantum, Splenocyte, 72 h incubation, mean ± SD. In kind it is cell-based, Leishmania infantum.
In data set [3] the test system is L. infantum-iRFP axenic amastigotes. The data set can be described thus: Viability of L. infantum-iRFP axenic amastigotes (infrared fluorescence, 384-well). In kind it is cell-based, Leishmania infantum. To be noted: for EC50: Leishmania infantum, 72 h incubation, mean ± SD; for concentrations producing a decrease in fluorescence emission: axenic amastigotes, from 24 h until 72 h.

Data set [4] can be described thus: Cytotoxicity in RAW 264.7 cells (alamarBlue). To be noted: mouse.
A further data set concerns the target L. infantum TryR (Leishmania infantum, UniProt A4HSF7). Briefly: Trypanothione reductase enzymatic assay in parasite protein extracts. Type of data set: biochemical. The following applies: up to 100 μM (thioridazine at 100 μM); T[S]2 0.075 mM, NADPH 0.20 mM.
Data set [5] has as its system intracellular amastigotes of L donovani. The following applies: cited from earlier work.
For data set [6], the system named is L. infantum-iRFP axenic amastigotes. Briefly: ROS production by axenic amastigotes (DCFH-DA, flow cytometry). In kind it is cell-based, Leishmania infantum. To be noted: 3 h treatment, 0.04 μM fexinidazole, 0.28 μM pretomanid (EC50). (In general: In flow cytometry, cells or beads pass a laser one at a time.)
Where [7] appears, read: CC50 HepG2 cells / EC50 intramacrophage amastigotes.
The mark [8] stands for this setting: CC50 RAW 264.7 cells / EC50 intramacrophage amastigotes.
Where [9] appears, read: CC50 HepG2 cells / EC50 axenic amastigotes.
[10] abbreviates: CC50 RAW 264.7 cells / EC50 axenic amastigotes.

Consider seven molecules from paper PMC11396368, “Free Radical Production Induced by Nitroimidazole Compounds Lead to Cell Death in Leishmania infantum Amastigotes” (Molecules, 2024).

Structures are written as SMILES. Where “and” joins values, the source holds several entries; their conditions need not be identical. Identical values can stand only once. Like-named read-outs stand apart in the source and are kept apart here.

Chain of L. infantum TryR (A4HSF7 entry or part of it): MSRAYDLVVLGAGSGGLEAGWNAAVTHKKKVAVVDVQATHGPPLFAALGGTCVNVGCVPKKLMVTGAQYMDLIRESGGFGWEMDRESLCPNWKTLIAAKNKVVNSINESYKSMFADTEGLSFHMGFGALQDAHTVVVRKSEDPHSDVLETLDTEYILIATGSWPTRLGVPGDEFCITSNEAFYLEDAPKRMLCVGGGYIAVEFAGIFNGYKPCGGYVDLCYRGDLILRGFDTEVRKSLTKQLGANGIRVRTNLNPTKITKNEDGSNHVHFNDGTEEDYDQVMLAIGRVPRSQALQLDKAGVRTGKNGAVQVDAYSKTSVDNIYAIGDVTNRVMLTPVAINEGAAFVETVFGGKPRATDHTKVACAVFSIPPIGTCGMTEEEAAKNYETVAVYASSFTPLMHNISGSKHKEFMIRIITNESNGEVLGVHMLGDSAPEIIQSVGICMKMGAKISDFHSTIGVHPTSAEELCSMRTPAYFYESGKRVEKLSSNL

In general, CC50 refers to the concentration that lowers cell viability or growth by half. The low end stands for harm at low concentration, the high end for better tolerance by the cells. Broadly, the EC50 is the concentration giving half of the maximal effect. A high value points to a less potent agent. With `C[C@@H]1[C@H](O)[C@@H](C)/C=C/C=C/C=C/C=C/C=C/C=C/C=C/[C@H](O[C@@H]2O[C@H](C)[C@@H](O)[C@H](N)[C@@H]2O)C[C@@H]2O[C@](O)(C[C@@H](O)C[C@@H](O)[C@H](O)CC[C@@H](O)C[C@@H](O)CC(=O)O[C@H]1C)C[C@H](O)[C@H]2C(=O)O` [Amp B], the CC50 at 72 h in data set [1] (HepG2 cells) was determined as 69800 ± 13700 nM; in data set [4] (RAW 264.7 macrophage cells) it was 6700 ± 670 nM. For the same molecule, the “SI1 (Selectivity Index)” value in data set [2] was determined as 217.97; in data set [3], 258.33. The “SI2 (Selectivity Index)” value is 20.94 in data set [2] and 24.82 in data set [3]. The results for the EC50 in data set [2] and in data set [3] were 320 ± 20 nM and 270 ± 20 nM, respectively.

Consider `CSc1ccc(OCc2ncc([N+](=O)[O-])n2C)cc1` [Fexinidazole, 1-methyl-2-((p-(methylthio)-phenoxy)methyl)-5-nitroimidazole], for which the CC50 at 72 h in data set [1] (HepG2 cells) and in data set [4] (RAW 264.7 macrophage cells) was > 200000 nM throughout. The “SI1 (Selectivity Index)” value in data set [2] (setting [7]) is recorded as >151.52; in data set [3] (setting [9]), >5000.00. Further, the results for the “SI2 (Selectivity Index)” value in data set [2] (setting [8]) and in data set [3] (setting [10]) were >151.52 and >5000.00, respectively. Moreover, the concentration giving a half-maximal response (EC50) worked out at 1320 ± 60 nM in data set [2] and 40 nM in data set [3]. For the same molecule, the “inhibitory effect on L. infantum TryR” value against L. infantum TryR is listed as “neither fexinidazole nor pretomanid had any inhibitory effect”. For the same molecule, the “concentrations producing a decrease in fluorescence emission” value in data set [3] was “above 0.125 μM”. In data set [5], the “potency against intracellular amastigotes” value (“potency” for short) is recorded as “little activity”. In addition, the “percentage of the stressed population (+ROS)” value (“percentage” below) in data set [6] (0.01% (v/v) H2O2) is 58.4 ± 1.5% and 58.4%. Further, in data set [6] (0.01% (v/v) H2O2), the “unstressed population (−ROS)” value came to 41.6%.

As to `OO` [H2O2], in data set [6] (0.01% (v/v) H2O2), the “percentage” value was 72.2% and the “unstressed population (−ROS)” value is listed as 27.7%.

On to `O=[N+]([O-])c1cn2c(n1)OC[C@@H](OCc1ccc(OC(F)(F)F)cc1)C2` [Pretomanid], for which the CC50 at 72 h in data set [1] and in data set [4] was > 200000 nM in each case. In addition, the “SI1 (Selectivity Index)” value in data set [2] (setting [7]) is on record as >303.03; in data set [3] (setting [9]), >714.29. In addition, the “SI2 (Selectivity Index)” value was >303.03 in data set [2] (setting [8]) and >714.29 in data set [3] (setting [10]). The EC50 in data set [2] amounted to 660 ± 80 nM; in data set [3], 280 ± 20 nM. Besides, at L. infantum TryR, the “inhibitory effect on L. infantum TryR” value is listed as “neither fexinidazole nor pretomanid had any inhibitory effect”. Moreover, the “concentrations producing a decrease in fluorescence emission” value in data set [3] was > 0.5 µM. For the same molecule, the “percentage” value in data set [6] (0.01% (v/v) H2O2) is listed as 39.8%; in data set [6] (0.01% (v/v) H2O2, listed as pretomanid) it was 39.8 ± 1.2%. In addition, the “unstressed population (−ROS)” value in data set [6] (0.01% (v/v) H2O2) came out at 59.9%.

With `Cn1c([N+](=O)[O-])cnc1COc1ccc(S(C)(=O)=O)cc1` [sulfone], the “potency” value in data set [5] is on record as “potency similar to miltefosine”.

For the molecule `Cn1c([N+](=O)[O-])cnc1COc1ccc([S+](C)[O-])cc1` (stereo not drawn) [sulfoxide], the “potency” value in data set [5] is on record as “potency similar to miltefosine”.

Take `CSc1ccc2c(c1)N(CCC1CCCCN1C)c1ccccc1S2` (stereo not drawn) [thioridazine]: the “inhibitory effect on L. infantum TryR” value against L. infantum TryR is on record as “completely inhibited the enzyme”.
